biological target: T1, H^+ -K^+ -ATPase (Sus scrofa, UniProt P19156); assay: Inhibitory Effect Test for the Activity of H^+ -K^+ -ATPase; assay type: biochemical; conditions: H+-K+-ATPase from the stomach of swine; preincubation pH 6.1, room temperature 30 min; reaction pH 7.4, 37° C. 30 min; read-out: IC50 (50% inhibition dosage)
T1 construct: which was prepared from the stomach of swine; from tissue; host or cells: stomach of swine
Procedure: H^+ -K^+ -ATPase (hydrogen-potassium-activated adenosine triphosphatase) (protein content: 10 mcg) which was prepared from the stomach of swine was added to PIPES-tris[buffer PIPES-tris(hydroxymethyl)-2-amino-1,3-propanediol buffer (pH=6.1) containing 2 mM of piperazine-N,N'-bis(2-ethanesulfonic acid)], then the resulting mixture was let allowed to stand at room temperature.
Each of the test compounds was dissolved in dimethylformamide, and the dimethylformamide solution was added to the above-mentioned H^+ -K^+ -ATPase buffer solution so as to adjust the final concentration of the test compound to 1.0%. Each of thus prepared mixture was reacted at room temperature for 30 minutes.
Next, the above-mentioned reaction mixture was divided into two portions, and to the one portion thereof was added 1 ml of 75 mM PIPES-tris buffer solution (pH=7.4) (containing 4 mM of MgCl2, 4 mM of Na2 ATP and 20 mM of KCl), on the other hand, to another portion of the reaction mixture was added 1 ml of 75 mM PIPES-tris buffer solution (pH=7.4) (containing 4 mM of MgCl2 and 4 mM of Na2 ATP), respectively. Each of these two series of sample solutions was separately reacted at 37° C. for 30 minutes. Then to each of these reaction mixtures was added 0.3 ml of 40% trichloroacetic acid to terminate the reaction, and was subjected to centrifugal separation at 3,000 rpm for 10 minutes to obtain the supernatent. Next, the inorganic phosphoric acid formed in the reaction mixture was determined by a method according to the article by C. H. Fiske and Y. Subbarow: J. Biol. Chem., Vol. 66, pages 375-400, (1925). The difference of the value obtained by substracting the quantity of inorganic phosphoric acid determined by using PIPES-tris buffer solution without containing 20 mM of KCl from the quantity of inorganic phosphoric acid determined by using PIPES-tris buffer solution containing 20 mM of KCl, was converted into as activity value of enzyme with respect to the unit protein and unit time.
Inhibitory rate (%) of each of the test compounds was obtained from the activity value of the enzyme at the respective dosages in the test groups and those of obtained from the control group, then IC50 (50% inhibition dosage of each of the test compounds) was calculated from the inhibitory rate (%).

T1 sequence (P19156 2-1034 limits assumed): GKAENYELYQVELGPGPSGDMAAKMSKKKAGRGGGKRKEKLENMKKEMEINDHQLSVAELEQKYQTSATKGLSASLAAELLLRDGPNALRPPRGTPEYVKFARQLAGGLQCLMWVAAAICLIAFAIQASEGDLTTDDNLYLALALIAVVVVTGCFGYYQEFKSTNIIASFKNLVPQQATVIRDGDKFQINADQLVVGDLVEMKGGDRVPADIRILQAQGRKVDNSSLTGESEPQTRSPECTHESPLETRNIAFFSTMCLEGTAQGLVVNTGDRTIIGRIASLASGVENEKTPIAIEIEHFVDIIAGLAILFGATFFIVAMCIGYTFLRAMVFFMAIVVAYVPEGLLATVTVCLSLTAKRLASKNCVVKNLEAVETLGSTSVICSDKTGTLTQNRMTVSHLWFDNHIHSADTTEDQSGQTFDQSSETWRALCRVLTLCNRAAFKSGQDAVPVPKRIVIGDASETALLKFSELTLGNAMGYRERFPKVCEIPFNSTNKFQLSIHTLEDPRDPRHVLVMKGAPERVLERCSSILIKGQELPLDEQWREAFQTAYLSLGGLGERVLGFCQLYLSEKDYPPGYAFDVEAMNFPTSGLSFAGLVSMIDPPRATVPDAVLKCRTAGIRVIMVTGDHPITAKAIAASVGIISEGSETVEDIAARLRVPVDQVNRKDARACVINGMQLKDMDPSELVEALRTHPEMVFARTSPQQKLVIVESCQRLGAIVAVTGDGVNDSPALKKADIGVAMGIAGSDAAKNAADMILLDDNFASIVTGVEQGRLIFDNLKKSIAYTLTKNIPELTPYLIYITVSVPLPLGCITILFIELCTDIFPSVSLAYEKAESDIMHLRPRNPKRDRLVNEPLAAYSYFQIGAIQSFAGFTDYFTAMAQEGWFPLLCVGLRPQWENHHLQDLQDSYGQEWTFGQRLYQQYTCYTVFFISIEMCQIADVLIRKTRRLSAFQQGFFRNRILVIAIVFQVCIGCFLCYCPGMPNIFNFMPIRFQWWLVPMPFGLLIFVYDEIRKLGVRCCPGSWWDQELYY
T1 sequence (P18434 whole entry partner): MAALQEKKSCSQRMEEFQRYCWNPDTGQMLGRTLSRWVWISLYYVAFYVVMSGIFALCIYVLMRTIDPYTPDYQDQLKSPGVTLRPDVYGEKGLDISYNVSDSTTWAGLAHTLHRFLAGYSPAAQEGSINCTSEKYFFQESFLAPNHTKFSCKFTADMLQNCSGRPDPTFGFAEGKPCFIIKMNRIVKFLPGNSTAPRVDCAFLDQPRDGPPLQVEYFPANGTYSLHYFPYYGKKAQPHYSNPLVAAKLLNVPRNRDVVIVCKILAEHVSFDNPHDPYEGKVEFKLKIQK

SMILES	IC50 [nM]
COCCOc1c(C)cnc2c1CCCC2[S+]([O-])c1nc2ccccc2[nH]1 (stereo not shown) [Test compound 9, 8-(2-Benzimidazolyl)sulfinyl-4-(2-methoxyethoxy)-3-methyl-5,6,7,8-tetrahydroquinoline]	840
COc1ccc2nc([S+]([O-])C3CCCc4ccc(C)nc43)[nH]c2c1 (stereo not shown) [Test compound 14, 2-Methyl-8-(5-methoxy-2-benzimidazolyl)-sulfinyl-5,6,7,8-tetrahydroquinoline]	1500
COc1c(C)cnc2c1CCCC2[S+]([O-])c1nc2ccccc2[nH]1 (stereo not shown) [Test compound 35, 3-Methyl-4-methoxy-8-(2-benzimidazolyl)-sulfinyl-5,6,7,8-tetrahydroquinoline]	250
C=CCOc1c(C)cnc2c1CCCC2[S+]([O-])c1nc2ccc(F)cc2[nH]1 (stereo not shown) [Test compound 11, 4-Allyloxy-8-(5-fluoro-2-benzimidazolyl)-sulfinyl-3-methyl-5,6,7,8-tetrahydroquinoline]	730
C#CCOc1c(C)cnc2c1CCCC2[S+]([O-])c1nc2ccc(F)cc2[nH]1 (stereo not shown) [Test compound 3, 8-(5-Fluoro-2-benzimidazolyl)sulfinyl-3-methyl-4-propargyloxy-5,6,7,8-tetrahydroquinoline]	1100
c1ccc(CSc2nc3ncccc3[nH]2)nc1 [Test compound 47, 2-(2-Pyridylmethylthio)imidazo[4,5-b]pyridine, reference compound]	> 100000
COc1c(C)cnc2c1CCCC2[S+]([O-])c1nc2ccc(Cl)cc2[nH]1 (stereo not shown) [Test compound 50, 3-Methyl-4-methoxy-8-(5-chloro-2-benzimidazolyl)sulfinyl-5,6,7,8-tetrahydroquinoline]	180
CCOc1cc2[nH]c([S+]([O-])C3CCCc4c3ncc(C)c4OC)nc2cc1F (stereo not shown) [Test compound 42, 3-Methyl-4-methoxy-8-(5-ethoxy-6-fluoro-2-benzimidazolyl)sulfinyl-5,6,7,8-tetrahydroquinoline]	240
Cc1cnc2c(c1)CCCC2[S+]([O-])c1nc2cc(Cl)c(Cl)cc2[nH]1 (stereo not shown) [Test compound 52, 3-Methyl-8-(5,6-dichloro-2-benzimidazolyl)-sulfinyl-5,6,7,8-tetrahydroquinoline]	230
C#CCOc1c(C)cnc2c1CCCC2[S+]([O-])c1nc2cc(Cl)c(Cl)cc2[nH]1 (stereo not shown) [Test compound 8, 8-(5,6-Dichloro-2-benzimidazolyl)sulfinyl-3-methyl-4-propargyloxy-5,6,7,8-tetrahydroquinoline]	290
COc1ccc2nc([S+]([O-])C3CCCc4c(OC)ccnc43)[nH]c2c1 (stereo not shown) [Test compound 24, 4-Methoxy-8-(5-methoxy-2-benzimidazolyl)-sulfinyl-5,6,7,8-tetrahydroquinoline]	7600
Cc1cnc2c(c1)CCCC2[S+]([O-])c1nc2cc(C)c(C)cc2[nH]1 (stereo not shown) [Test compound 53, 3-Methyl-8-(5,6-dimethyl-2-benzimidazolyl)-sulfinyl-5,6,7,8-tetrahydroquinoline]	580
C#CCOc1c(C)cnc2c1CCCC2[S+]([O-])c1nc2ccccc2[nH]1 (stereo not shown) [Test compound 7, 8-(2-Benzimidazolyl)sulfinyl-3-methyl-4-propargyloxy-5,6,7,8-tetrahydroquinoline]	1200
COc1c(C)cnc2c1CCCC2[S+]([O-])c1nc2ccc(F)cc2[nH]1 (stereo not shown) [Test compound 34, 3-Methyl-4-methoxy-8-(5-fluoro-2-benzimidazolyl)sulfinyl-5,6,7,8-tetrahydroquinoline]	220
C=CCOc1c(C)cnc2c1CCCC2[S+]([O-])c1nc2cc(Cl)c(Cl)cc2[nH]1 (stereo not shown) [Test compound 5, 4-Allyloxy-8-(5,6-dichloro-2-benzimidazolyl)-sulfinyl-3-methyl-5,6,7,8-tetrahydroquinoline]	310
C=CCOc1c(C)cnc2c1CCCC2[S+]([O-])c1nc2cc(F)c(F)cc2[nH]1 (stereo not shown) [Test compound 2, 4-Allyloxy-8-(5,6-difluoro-2-benzimidazolyl)-sulfinyl-3-methyl-5,6,7,8-tetrahydroquinoline]	1800
COc1cc2nc([S+]([O-])C3CCCc4c3ncc(C)c4OC)[nH]c2cc1F (stereo not shown) [Test compound 48, 3-Methyl-4-methoxy-8-(5-fluoro-6-methoxy-2-benzimidazolyl)sulfinyl-5,6,7,8-tetrahydroquinoline]	310
COc1c(C)cnc2c1CCCC2[S+]([O-])c1nc2cc(Cl)c(Cl)cc2[nH]1 (stereo not shown) [Test compound 41, 3-Methyl-4-methoxy-8-(5,6-dichloro-2-benzimidazolyl)sulfinyl-5,6,7,8-tetrahydroquinoline]	99
C=CCOc1c(C)cnc2c1CCCC2[S+]([O-])c1nc2ccccc2[nH]1 (stereo not shown) [Test compound 1, 4-Allyloxy-8-(2-benzimidazolyl)sulfinyl-3-methyl-5,6,7,8-tetrahydroquinoline]	740

More lines, now with the values ahead:

IC50 [nM]	SMILES
2600	Cc1cccc2nc([S+]([O-])C3CCCc4cccnc43)[nH]c12 (stereo not shown) [Test compound 33, 8-(4-Methyl-2-benzimidazolyl)sulfinyl-5,6,7,8-tetrahydroquinoline]
2900	COc1ccnc2c1CCCC2[S+]([O-])c1nc2ccc(C(F)(F)F)cc2[nH]1 (stereo not shown) [Test compound 25, 4-Methoxy-8-(5-trifluoromethyl-2-benzimidazolyl)sulfinyl-5,6,7,8-tetrahydroquinoline]
3200	CC(=O)c1ccc2nc([S+]([O-])C3CCCc4cc(C)cnc43)[nH]c2c1 (stereo not shown) [Test compound 18, 3-Methyl-8-(5-acetyl-2-benzimidazolyl)-sulfinyl-5,6,7,8-tetrahydroquinoline]
700	[O-][S+](c1nc2cc(Cl)c(Cl)cc2[nH]1)C1CCCc2cccnc21 (stereo not shown) [Test compound 36, 8-(5,6-Dichloro-2-benzimidazolyl)sulfinyl-5,6,7,8-tetrahydroquinoline]
1900	Cc1cnc2c(c1)CCCC2[S+]([O-])c1nc2ccc(F)cc2[nH]1 (stereo not shown) [Test compound 40, 3-Methyl-8-(5-fluoro-2-benzimidazolyl)-sulfinyl-5,6,7,8-tetrahydroquinoline]
1500	Cc1cnc2c(c1)CCCC2[S+]([O-])c1nc2ccc(C(F)(F)F)cc2[nH]1 (stereo not shown) [Test compound 27, 3-Methyl-8-(5-trifluoromethyl-2-benzimidazolyl)sulfinyl-5,6,7,8-tetrahydroquinoline]
1100	COc1ccc2nc([S+]([O-])C3CCCc4c(C)ccnc43)[nH]c2c1 (stereo not shown) [Test compound 13, 4-Methyl-8-(5-methoxy-2-benzimidazolyl)-sulfinyl-5,6,7,8-tetrahydroquinoline]
930	COc1cc2nc([S+]([O-])C3CCCc4cccnc43)[nH]c2cc1OC (stereo not shown) [Test compound 30, 8-(5,6-Dimethoxy-2-benzimidazolyl)sulfinyl-5,6,7,8-tetrahydroquinoline]
99	COc1ccnc2c1CCCC2[S+]([O-])c1nc2ccc(F)cc2[nH]1 (stereo not shown) [Test compound 51, 4-Methoxy-8-(5-fluoro-2-benzimidazolyl)-sulfinyl-5,6,7,8-tetrahydroquinoline]
1900	COc1ccc2nc([S+]([O-])C3CCCc4cccnc43)[nH]c2c1 (stereo not shown) [Test compound 23, 8-(5-Methoxy-2-benzimidazolyl)sulfinyl-5,6,7,8-tetrahydroquinoline]
3400	CCOc1cc2[nH]c([S+]([O-])C3CCCc4cccnc43)nc2cc1F (stereo not shown) [Test compound 37, 8-(5-Ethoxy-6-fluoro-2-benzimidazolyl)-sulfinyl-5,6,7,8-tetrahydroquinoline]
1900	[O-][S+](c1nc2ccc(C(F)(F)F)cc2[nH]1)C1CCCc2cccnc21 (stereo not shown) [Test compound 28, 8-(5-Trifluoromethyl-2-benzimidazolyl)-sulfinyl-5,6,7,8-tetrahydroquinoline]
2900	O=[N+]([O-])c1ccc2nc([S+]([O-])C3CCCc4cccnc43)[nH]c2c1 (stereo not shown) [Test compound 31, 8-(5-Nitro-2-benzimidazolyl)sulfinyl-5,6,7,8-tetrahydroquinoline]
2980	Cc1cnc2c(c1)C([S+]([O-])c1nc3ccc(C(F)(F)F)cc3[nH]1)CCC2 (stereo not shown) [Test compound 39, 3-Methyl-5-(5-trifluoromethyl-2-benzimidazolyl)sulfinyl-5,6,7,8-tetrahydroquinoline]
1100	Cc1cnc2c(c1)CCCC2[S+]([O-])c1nc2ccc(C)cc2[nH]1 (stereo not shown) [Test compound 16, 3-Methyl-8-(5-methyl-2-benzimidazolyl)-sulfinyl-5,6,7,8-tetrahydroquinolin]

Reference: US4738970A, “Benzimidazolyl-thio-tetrahydroquinolines and anti-peptic ulcer compositions containing the same” (Otsuka Pharmaceutical Co., Ltd., priority 1984, dated 1988)
